Biological target: T1, human α7 nAChR (Homo sapiens, UniProt P36544)
T1 construct: expressed in transfected cells; host or cells: GH4C1 cells derived from rat pituitary (ATCC CCL-82.2)
Assay: Evaluation of PAM activity with human α7 nACh receptor stably expressing cells (aequorin luminescence, FDSS7000)
Type: cell-based
Settings: for activity at 10 µM / α7PAM (%) @ 10 μmol/L: test compound 10 μmol/L, ACh added at EC20, ratio of RLU (Max-Min) of test wells to control wells; for activity at 10 µM: read-out: α7PAM (%) @ 10 μmol/L; for PAM activity for α7 nAChR: result in words, ratio of RLU (Max-Min) to control wells, ACh EC20
Text: Human α7 nAChR stably expressing cells were generated and cultured. In detail, GH4C1 cells derived from rat pituitary (cat#CCL-82.2, ATCC, USA) were used as a host cell. PcDNA3.1Zeo vector containing a nucleotide sequence encoding a protein GenBank BAC81731 and pcDNA3.1 vector containing human α7 nAChR gene (cat#V790-20, invitrogen, Carlsbad, Calif., USA) were transfected to the cells to give aequorins and human α7 nAChR stably expressing cells respectively. The aequorins and human α7 nAChR stably expressing cells were screened with Zeocin (cat#R25001, invitrogen, Carlsbad, Calif., USA) and Geneticin (cat #10131-027, invitrogen, Carlsbad, Calif., USA) respectively.
The cells were cultured in F-10 Nutrient Mixture (Ham) medium (cat #11550-043, invitrogen, Carlsbad, Calif., USA) containing 2.5% fetal bovine serum (cat #2917354, ICN Biomedicals, Inc, USA), 15% inactivated horse serum (cat #26050-088, invitrogen, Carlsbad, Calif., USA), 1 μg/mL Geneticin, and 5 μg/mL Puromycin (cat #14861-84, invitrogen, Carlsbad, Calif., USA), in a Collagen Type 1-coated dish (cat #4030-010, iwaki, Tokyo, Japan). During the culture, the medium was replaced with fresh medium in every 2 to 3 days, and the cells were treated with TrypLE Express (cat #45604-021, invitrogen, Carlsbad, Calif., USA) to collect them in every 7 days. Thus, the cells were subcultured.
7 Days after subculturing, the cells were treated with TrypLE Express to collect them when they were about 80% confluent. The cells were suspended in a reaction medium containing Hanks (cat #14065-056, invitrogen, Carlsbad, Calif., USA)/20 mmol/L Hepes (cat #15630-080, invitrogen, Carlsbad, Calif., USA), Buffer (pH 7.4), F-10 Nutrient Mixture (Ham), and 0.1 mg/mL Geneticin, and the suspension was seeded in a 384-well plate (cat #781090, Greiner, Germany) at 20000 cells/25 μL per well.
On the next day after seeding, Viviren (cat#E649X, Promega, Madison, Wis., USA) was added to the medium so that the final concentration could be 4 μmol/L (15 μL/well). The plates were centrifuged and then placed in the dark for 4 hours at room temperature.
Each of the test compounds was dissolved in DMSO to prepare each test sample at a concentration of 1000-fold the final concentration. To the solution was added Hanks/20 mM HEPES/0.2% BSA (cat#A3803, Sigma, St. Louis, Mo., USA), and the concentration was adjusted to 6-fold the final concentration.
FDSS7000 (Hamamatsu Photonics) was used to detect the luminescence signal evoked by α7 nAChR stimulation. The cells and a luminescent substrate were put on a plate, and the test sample was added thereto. […] After the addition of ACh, the luminescence signal (the central wavelength: 465 nm) was measured for 138 seconds to calculate RLU (Max-Min). The ratio of the RLU (Max-Min) of the test-compound-containing wells to that of the control wells was defined as PAM activity.

T1 sequence (P36544 23-502): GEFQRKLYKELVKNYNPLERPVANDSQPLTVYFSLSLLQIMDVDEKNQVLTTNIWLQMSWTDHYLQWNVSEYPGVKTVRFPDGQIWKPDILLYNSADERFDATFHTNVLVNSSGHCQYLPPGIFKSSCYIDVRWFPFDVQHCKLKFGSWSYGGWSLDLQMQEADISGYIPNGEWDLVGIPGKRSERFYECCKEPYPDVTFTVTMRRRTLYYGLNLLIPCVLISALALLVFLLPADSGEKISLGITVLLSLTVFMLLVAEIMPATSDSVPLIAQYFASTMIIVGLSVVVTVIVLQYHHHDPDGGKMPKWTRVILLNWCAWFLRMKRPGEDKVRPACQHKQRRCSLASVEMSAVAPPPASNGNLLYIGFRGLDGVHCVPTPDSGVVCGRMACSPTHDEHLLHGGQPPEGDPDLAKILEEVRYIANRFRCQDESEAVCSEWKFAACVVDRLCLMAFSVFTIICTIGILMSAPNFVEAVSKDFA

Row | activity at 10 µM [%] | PAM activity for α7 nAChR | α7PAM (%) @ 10 μmol/L [%] | SMILES
1 | 625 |  |  | CCOc1nn(C2CCN(C(=O)NC3CCOCC3)CC2)c2ccc(CC)cc12 [Example 2, 4-(3-ethoxy-5-ethyl-1H-indazol-1-yl)-N-(tetrahydro-2H-pyran-4-yl)piperidine-1-carboxamide]
2 | 512 |  |  | CCOc1ccc2c(cnn2C2CCN(C(=O)C3CCC(F)(F)CC3)CC2)c1 [Example 3, (4,4-difluorocyclohexyl)(4-(5-ethoxy-1H-indazol-1-yl)piperidin-1-yl)methanone]
3 |  | stronger PAM activity than others |  | CCc1ccc2c(cnn2[C@H]2CC[C@@H](NC(=O)C3CCC(F)(F)CC3)CC2)c1 [Example 4, N-(cis-4-(5-ethyl-1H-indazol-1-yl)cyclohexyl)-4,4-difluorocyclohexanecarboxamide]
4 | 285 |  |  | CCc1ccc2c(cnn2[C@H]2CC[C@@H](C(=O)NC3CCC(F)(F)CC3)CC2)c1 [Example 6, cis-N-(4,4-difluorocyclohexyl)-4-(5-ethyl-1H-indazol-1-yl)cyclohexanecarboxamide]
5 |  | stronger PAM activity than others |  | Cc1ccc2c(cnn2C2CCN(C(=O)NC3CCCCC3)CC2)c1 [Example 8, N-cyclohexyl-4-(5-methyl-1H-indazol-1-yl)piperidine-1-carboxamide]
6 |  |  | 231 | Cc1ccc2c(cnn2C2CCN(C(=O)NC3CCOC(C)(C)C3)CC2)c1 (stereo not drawn) [Example 12]
7 |  | stronger PAM activity than others |  | Cc1ccc2c(cnn2C2CCN(C(=O)NC3CCC(F)(F)CC3)CC2)c1 [Example 13, N-(4,4-difluorocyclohexyl)-4-(5-methyl-1H-indazol-1-yl)piperidine-1-carboxamide]
8 |  | stronger PAM activity than others |  | CCOc1ccc2c(cnn2C2CCN(C(=O)NC3CCCCC3)CC2)c1 [Example 18, N-cyclohexyl-4-(5-ethoxy-1H-indazol-1-yl)piperidine-1-carboxamide]
9 |  |  | 306 | CCOc1ccc2c(cnn2C2CCN(C(=O)NC3CCOCC3)CC2)c1 [Example 19]
10 |  | stronger PAM activity than others | 2215 | CCc1ccc2c(cnn2C2CCN(C(=O)NC3CCCC3)CC2)c1 [Example 20]
11 | 340 |  |  | O=C(NC1CCC(F)(F)CC1)N1CCC(n2ncc3cc(F)ccc32)CC1 [Example 28, N-(4,4-difluorocyclohexyl)-4-(5-fluoro-1H-indazol-1-yl)piperidine-1-carboxamide]
12 |  |  | 1191 | COCCCc1ccc2c(cnn2C2CCN(C(=O)NC3CCCC3)CC2)c1 [Example 31]
13 |  |  | 430 | COCCCc1ccc2c(cnn2C2CCN(C(=O)N[C@H]3CC[C@H](OC)CC3)CC2)c1 [Example 32]
14 | 430 |  |  | O=C(NC1CCCC1)N1CCC(n2ncc3cc(Cl)ccc32)CC1 [Example 33, 4-(5-chloro-1H-indazol-1-yl)-N-cyclopentylpiperidine-1-carboxamide]
15 | 445 |  |  | O=C(NC1CCC(F)(F)CC1)N1CCC(n2ncc3cc(Cl)ccc32)CC1 [Example 34, 4-(5-chloro-1H-indazol-1-yl)-N-(4,4-difluorocyclohexyl)piperidine-1-carboxamide]
16 |  |  | 411 | COC1CCC(NC(=O)N2CCC(n3ncc4cc(Cl)ccc43)CC2)CC1 (stereo not drawn) [Example 35]
17 | 897 |  |  | COCc1nn(C2CCN(C(=O)NC3CCC(F)(F)CC3)CC2)c2ccc(C)cc12 [Example 36, N-(4,4-difluorocyclohexyl)-4-(3-(methoxymethyl)-5-methyl-1H-indazol-1-yl)piperidine-1-carboxamide]
18 |  |  | 481 | COC1CCC(NC(=O)N2CCC(n3ncc4c(C5CC5)cccc43)CC2)CC1 (stereo not drawn) [Example 37]

Row | activity at 10 µM [%] | PAM activity for α7 nAChR | α7PAM (%) @ 10 μmol/L [%] | SMILES
19 |  |  | 1101 | O=C(NC1CCC(F)(F)CC1)N1CCC(n2ncc3ccccc32)CC1 [Example 38]
20 |  |  | 1892 | O=C(NC1CCCCC1)N1CCC(n2ncc3ccccc32)CC1 [Example 39]
21 |  | stronger PAM activity than others | 3205 | COc1ccc2c(cnn2C2CCN(C(=O)NC3CCCCC3)CC2)c1 [Example 40]
22 |  | stronger PAM activity than others |  | COc1ccc2c(cnn2C2CCN(C(=O)NC3CCC(F)(F)CC3)CC2)c1 [Example 41, N-(4,4-difluorocyclohexyl)-4-(5-methoxy-1H-indazol-1-yl)piperidine-1-carboxamide]
23 | 241 |  |  | CCc1nn(C2CCN(C(=O)NC3CCC(F)(F)CC3)CC2)c2ccc(C)cc12 [Example 42, N-(4,4-difluorocyclohexyl)-4-(3-ethyl-5-methyl-1H-indazol-1-yl)piperidine-1-carboxamide]
24 |  |  | 528 | CCc1nn(C2CCN(C(=O)NC3CCOCC3)CC2)c2ccc(C)cc12 [Example 43]
25 |  |  | 322 | CCO[C@H]1CC[C@H](NC(=O)N2CCC(n3ncc4c(C5CC5)cccc43)CC2)CC1 [Example 44]
26 | 544 |  |  | CC(C)Oc1ccc2c(cnn2C2CCN(C(=O)NC3CCC(F)(F)CC3)CC2)c1 [Example 46, N-(4,4-difluorocyclohexyl)-4-(5-isopropoxy-1H-indazol-1-yl)piperidine-1-carboxamide]
27 |  |  | 375 | COC1CCC(NC(=O)N2CCC(n3ncc4cc(OC(C)C)ccc43)CC2)CC1 (stereo not drawn) [Example 47]
28 |  |  | 429 | CC(C)Oc1ccc2c(cnn2C2CCN(C(=O)NC3CCCC3)CC2)c1 [Example 49]
29 |  |  | 295 | CCN(C(=O)N1CCC(n2ncc3ccccc32)CC1)C1CCC(OC)CC1 (stereo not drawn) [Example 51]
30 | 366 |  |  | Cc1ccc2c(c1)c(C1CCOCC1)nn2C1CCN(C(=O)NC2CCC(F)(F)CC2)CC1 [Example 52, N-(4,4-difluorocyclohexyl)-4-(5-methyl-3-(tetrahydro-2H-pyran-4-yl)-1H-indazol-1-yl)piperidine-1-carboxamide]
31 |  |  | 309 | CCc1nn(C2CCN(C(=O)NC3CCC(F)(F)CC3)CC2)c2ccccc12 [Example 53]
32 |  |  | 657 | COCc1ccc2c(cnn2C2CCN(C(=O)NC3CCC(F)(F)CC3)CC2)c1 [Example 54]
33 |  |  | 603 | COC1CCC(NC(=O)N2CCC(n3nc(C4CCOCC4)c4cc(C)ccc43)CC2)CC1 (stereo not drawn) [Example 55]
34 |  |  | 676 | CCOc1nn(C2CCN(C(=O)NC3CCCC3)CC2)c2ccc(CC)cc12 [Example 56]
35 |  |  | 382 | CCOc1nn(C2CCN(C(=O)NC3CCC(OC)CC3)CC2)c2ccc(CC)cc12 (stereo not drawn) [Example 57]
36 |  |  | 577 | CCc1ccc2c(c1)c(OC(C)C)nn2C1CCN(C(=O)NC2CCCC2)CC1 [Example 58]

Row | SMILES | activity at 10 µM [%] | PAM activity for α7 nAChR | α7PAM (%) @ 10 μmol/L [%]
37 | Cc1ccc2c(cnn2C2CCN(C(=O)NC3CCCC3)CC2)c1 [Example 7] |  |  | 1044
38 | CC(C)c1ccc2c(cnn2C2CCN(C(=O)NC3CCOCC3)CC2)c1 [Example 14] |  |  | 728
39 | CCOc1ccc2c(cnn2C2CCN(C(=O)NC3CCCC3)CC2)c1 [Example 17] |  | stronger PAM activity than others | 2469
40 | CCc1ccc2c(cnn2C2CCN(C(=O)NC3CCOC(C)(C)C3)CC2)c1 (stereo not drawn) [Example 21] |  |  | 523
41 | CCc1ccc2c(cnn2C2CCN(C(=O)NC3CCC(F)(F)CC3)CC2)c1 [Example 23] |  | stronger PAM activity than others | 
42 | CCc1ccc2c(cnn2C2CCN(C(=O)NC3CCOCC3)CC2)c1 [Example 24] |  |  | 745
43 | COCCCc1ccc2c(cnn2C2CCN(C(=O)NC3CCC(F)(F)CC3)CC2)c1 [Example 26] |  |  | 521
44 | COC1CCC(NC(=O)N2CCC(n3ncc4cc(F)ccc43)CC2)CC1 (stereo not drawn) [Example 29] |  |  | 206
45 | CCOc1ccc2c(cnn2C2CCN(C(=O)N[C@H]3CC[C@H](OC)CC3)CC2)c1 [Example 30] |  |  | 908
